Reference: paper PMC5218480 (PLoS ONE, 2017)

Test system: MV-4-11 cells
Assay: Gene expression microarray analysis (Affymetrix PrimeView) and GSEA
Assay type: cell-based, human
Set-up: RFU PODN (11730768_x_at) / Fold change /veh PODN (11730768_x_at) / RFU LINC00158 (11744669_a_at) / Fold change /veh LINC00158 (11744669_a_at) / RFU DUSP10 (11751237_a_at) / Fold change /veh DUSP10 (11751237_a_at) / RFU ID3 (11757404_x_at) / Fold change /veh ID3 (11757404_x_at) / RFU PLEKHG5 (11737974_s_at) / Fold change /veh PLEKHG5 (11737974_s_at) / RFU LRRC4B (11730491_at) / Fold change /veh LRRC4B (11730491_at) / RFU GIMAP4 (11747438_a_at) / Fold change /veh GIMAP4 (11747438_a_at) / RFU KRT8 (11758183_x_at) / Fold change /veh KRT8 (11758183_x_at) / RFU CNN1 (11734310_a_at) / Fold change /veh CNN1 (11734310_a_at) / RFU VPS37D (11726825_at) / Fold change /veh VPS37D (11726825_at) / RFU C10orf10 (11716522_x_at) / Fold change /veh C10orf10 (11716522_x_at) / RFU KIR2DL2 /// KIR2DL4 /// KIR2DL5A /// KIR2DL5B /// KIR2DS1 /// KIR2DS2 /// KIR2DS3 /// KIR2DS4 /// KIR3DL3 /// KIR3DL3 /// KIR3DS1 (11738374_at) / Fold change /veh KIR2DL2 /// KIR2DL4 /// KIR2DL5A /// KIR2DL5B /// KIR2DS1 /// KIR2DS2 /// KIR2DS3 /// KIR2DS4 /// KIR3DL3 /// KIR3DL3 /// KIR3DS1 (11738374_at) / RFU C1QL1 (11718748_at) / Fold change /veh C1QL1 (11718748_at) / RFU TMPRSS4 (11747572_a_at) / Fold change /veh TMPRSS4 (11747572_a_at) / RFU HAMP (11756126_x_at) / Fold change /veh HAMP (11756126_x_at) / RFU RNFT2 (11725882_a_at) / Fold change /veh RNFT2 (11725882_a_at) / RFU NR4A2 (11747474_a_at) / Fold change /veh NR4A2 (11747474_a_at) / RFU ABCC12 (11746883_a_at) / Fold change /veh ABCC12 (11746883_a_at) / RFU TMEM136 (11760407_x_at) / Fold change /veh TMEM136 (11760407_x_at) / RFU CLDN22 /// WWC2 (11732394_at) / Fold change /veh CLDN22 /// WWC2 (11732394_at) / RFU HLA-DPB1 (11760878_x_at) / Fold change /veh HLA-DPB1 (11760878_x_at) / RFU SPINT1 (11716480_a_at) / Fold change /veh SPINT1 (11716480_a_at) / RFU GAP43 (11754022_s_at) / Fold change /veh GAP43 (11754022_s_at) / RFU A4GNT (11735810_at) / Fold change /veh A4GNT (11735810_at) / RFU PRB3 (11715151_x_at) / Fold change /veh PRB3 (11715151_x_at) / RFU TUBB4B (11761932_at) / Fold change /veh TUBB4B (11761932_at) / RFU CAPN14 (11732068_a_at) / Fold change /veh CAPN14 (11732068_a_at) / RFU TMCC2 (11721928_a_at) / Fold change /veh TMCC2 (11721928_a_at) / RFU IRGQ (11745062_a_at) / Fold change /veh IRGQ (11745062_a_at) / RFU FAM174B (11720279_a_at) / Fold change /veh FAM174B (11720279_a_at) / RFU TMPRSS4 (11748680_a_at) / Fold change /veh TMPRSS4 (11748680_a_at) / RFU FAM212B (11763350_a_at) / Fold change /veh FAM212B (11763350_a_at) / RFU PLEKHG5 (11743358_a_at) / Fold change /veh PLEKHG5 (11743358_a_at) / RFU ZSCAN30 (11745921_a_at) / Fold change /veh ZSCAN30 (11745921_a_at) / RFU CMKLR1 (11741424_a_at) / Fold change /veh CMKLR1 (11741424_a_at) / RFU LOC101060620 /// MAPK8IP1 (11723275_at) / Fold change /veh LOC101060620 /// MAPK8IP1 (11723275_at) / RFU SPTSSB (11747773_x_at) / Fold change /veh SPTSSB (11747773_x_at) / RFU PRSS12 (11739890_at) / Fold change /veh PRSS12 (11739890_at) / RFU BIN1 (11741810_x_at) / Fold change /veh BIN1 (11741810_x_at) / RFU WNT11 (11732464_a_at) / Fold change /veh WNT11 (11732464_a_at) / RFU C10orf10 (11716521_a_at) / Fold change /veh C10orf10 (11716521_a_at) / RFU C5orf56 (11738089_at) / Fold change /veh C5orf56 (11738089_at) / RFU CYB561 (11721691_x_at) / Fold change /veh CYB561 (11721691_x_at) / RFU ANKRD19P (11752326_a_at) / Fold change /veh ANKRD19P (11752326_a_at) / RFU OR2T12 /// OR2T33 /// OR2T8 (11738714_s_at) / Fold change /veh OR2T12 /// OR2T33 /// OR2T8 (11738714_s_at) / RFU VCAN (11748164_a_at) / Fold change /veh VCAN (11748164_a_at) / RFU JSRP1 (11732532_at) / Fold change /veh JSRP1 (11732532_at) / RFU KRTAP10-11 (11738290_x_at) / Fold change /veh KRTAP10-11 (11738290_x_at) / RFU MYO3A (11730013_a_at) / Fold change /veh MYO3A (11730013_a_at) / RFU EBF3 (11725865_a_at) / Fold change /veh EBF3 (11725865_a_at) / RFU CAMK2N1 (11719241_x_at) / Fold change /veh CAMK2N1 (11719241_x_at) / RFU C5orf56 (11738088_a_at) / Fold change /veh C5orf56 (11738088_a_at) / RFU OLFML3 (11715873_a_at) / Fold change /veh OLFML3 (11715873_a_at) / RFU LOC100653217 /// NTM (11731650_a_at) / Fold change /veh LOC100653217 /// NTM (11731650_a_at) / RFU MAPK11 (11762145_a_at) / Fold change /veh MAPK11 (11762145_a_at) / RFU FIZ1 (11724087_x_at) / Fold change /veh FIZ1 (11724087_x_at) / RFU OASL (11726364_x_at) / Fold change /veh OASL (11726364_x_at) / RFU SOX15 (11748057_x_at) / Fold change /veh SOX15 (11748057_x_at) / RFU CD79A (11719716_a_at) / Fold change /veh CD79A (11719716_a_at) / RFU HIST1H1D (11736915_at) / Fold change /veh HIST1H1D (11736915_at) / RFU CASKIN2 (11723855_a_at) / Fold change /veh CASKIN2 (11723855_a_at) / RFU LOC730098 (11760151_x_at) / Fold change /veh LOC730098 (11760151_x_at) / RFU OR4N2 (11742367_at) / Fold change /veh OR4N2 (11742367_at) / RFU PRRT2 (11749266_a_at) / Fold change /veh PRRT2 (11749266_a_at) / RFU SNX32 (11753110_a_at) / Fold change /veh SNX32 (11753110_a_at) / RFU CDHR5 (11726645_a_at) / Fold change /veh CDHR5 (11726645_a_at) / RFU RCAN1 (11760418_a_at) / Fold change /veh RCAN1 (11760418_a_at) / RFU FAM167A (11723789_a_at) / Fold change /veh FAM167A (11723789_a_at) / RFU FAM26E (11764081_at) / Fold change /veh FAM26E (11764081_at) / RFU ISYNA1 (11749810_s_at) / Fold change /veh ISYNA1 (11749810_s_at) / RFU ACY1 (11761880_at) / Fold change /veh ACY1 (11761880_at) / RFU 11764098_at / Fold change /veh 11764098_at / RFU SAMD14 (11745864_x_at) / Fold change /veh SAMD14 (11745864_x_at) / RFU NPB (11741838_a_at) / Fold change /veh NPB (11741838_a_at) / RFU TMPRSS6 (11731388_a_at) / Fold change /veh TMPRSS6 (11731388_a_at) / RFU KRTAP10-2 (11738614_at) / Fold change /veh KRTAP10-2 (11738614_at) / RFU ARHGAP8 /// PRR5-ARHGAP8 (11727945_x_at) / Fold change /veh ARHGAP8 /// PRR5-ARHGAP8 (11727945_x_at) / RFU KRTAP5-7 /// NADSYN1 (11734609_at) / Fold change /veh KRTAP5-7 /// NADSYN1 (11734609_at) / RFU RASL12 (11751679_a_at) / Fold change /veh RASL12 (11751679_a_at) / RFU CDKN2B (11736163_a_at) / Fold change /veh CDKN2B (11736163_a_at) / RFU PRF1 (11729649_at) / Fold change /veh PRF1 (11729649_at) / RFU, ZNF638 /// ZNF638-IT1 / Fold change vs veh, ZNF638 /// ZNF638-IT1 / RFU, PANK3 / Fold change vs veh, PANK3 / RFU, SH3YL1 / Fold change vs veh, SH3YL1 / RFU, ZEB2 / Fold change vs veh, ZEB2 / RFU, NRIP1 / Fold change vs veh, NRIP1 / RFU, PTTG1IP / Fold change vs veh, PTTG1IP / RFU, CAPN2 / Fold change vs veh, CAPN2 / RFU, MED14 / Fold change vs veh, MED14 / RFU, SNORA58 / Fold change vs veh, SNORA58 / RFU, C1orf63 / Fold change vs veh, C1orf63 / RFU, LRRFIP1 / Fold change vs veh, LRRFIP1 / RFU, NDUFAF7 / Fold change vs veh, NDUFAF7 / RFU, SLC12A2 / Fold change vs veh, SLC12A2 / RFU, IBTK / Fold change vs veh, IBTK / RFU, ESF1 / Fold change vs veh, ESF1 / Fold change vs veh, TMEM50B / RFU, TAOK1 / Fold change vs veh, TAOK1 / RFU, ACBD3 / Fold change vs veh, ACBD3 / RFU, TMA16 / Fold change vs veh, TMA16 / RFU, RWDD3 / Fold change vs veh, RWDD3 / RFU, BCAT1 / Fold change vs veh, BCAT1 / RFU, EDEM3 / Fold change vs veh, EDEM3 / RFU, TMEM33 / Fold change vs veh, TMEM33 / RFU, WDR75 / Fold change vs veh, WDR75 / RFU, AHCTF1 / Fold change vs veh, AHCTF1 / RFU, TFRC / Fold change vs veh, TFRC / RFU, ZDHHC17 / Fold change vs veh, ZDHHC17 / RFU, NOM1 / Fold change vs veh, NOM1 / RFU, ARL8B / Fold change vs veh, ARL8B / RFU, ZBTB11 / Fold change vs veh, ZBTB11 / RFU, TAMM41 / Fold change vs veh, TAMM41 / RFU, KIAA1704 /// LOC100996395 / Fold change vs veh, KIAA1704 /// LOC100996395 / RFU, ING1 / Fold change vs veh, ING1 / RFU, TRMT61B / Fold change vs veh, TRMT61B / RFU, FUBP3 / Fold change vs veh, FUBP3 / RFU, TP53 / Fold change vs veh, TP53 / RFU, TNKS2 / Fold change vs veh, TNKS2 / RFU, ZFP14 / Fold change vs veh, ZFP14 / RFU, ACTR2 / Fold change vs veh, ACTR2 / RFU, PPP3R1 / Fold change vs veh, PPP3R1 / RFU, PIK3R1 / Fold change vs veh, PIK3R1 / RFU, HNRNPA1 / Fold change vs veh, HNRNPA1 / RFU, RNF170 / Fold change vs veh, RNF170 / RFU, ZNF28 / Fold change vs veh, ZNF28 / RFU, RNGTT / Fold change vs veh, RNGTT / RFU, OGT / Fold change vs veh, OGT / RFU, BRD1 / Fold change vs veh, BRD1 / RFU, MARS / Fold change vs veh, MARS / RFU, ZNF655 / Fold change vs veh, ZNF655 / RFU, FAHD1 / Fold change vs veh, FAHD1 / RFU, BDP1 / Fold change vs veh, BDP1 / RFU, LRRCC1 / Fold change vs veh, LRRCC1 / RFU, ARID1A / Fold change vs veh, ARID1A / RFU, ZNF146 / Fold change vs veh, ZNF146 / RFU, ZNF330 / Fold change vs veh, ZNF330 / RFU, GPN3 / Fold change vs veh, GPN3 / RFU, C9orf123 / Fold change vs veh, C9orf123 / RFU, N4BP2L2 / Fold change vs veh, N4BP2L2 / RFU, ARFIP1 / Fold change vs veh, ARFIP1 / RFU, FAM179B / Fold change vs veh, FAM179B / RFU, BCL10 / Fold change vs veh, BCL10 / RFU, UHRF1BP1L / Fold change vs veh, UHRF1BP1L / RFU, BET1 / Fold change vs veh, BET1 / RFU, CNOT2 / Fold change vs veh, CNOT2 / RFU, ZNF268 / Fold change vs veh, ZNF268 / Fold change vs veh, ZNF507 / RFU, DGCR2 / Fold change vs veh, DGCR2 / RFU, WDSUB1 / Fold change vs veh, WDSUB1 / Fold change vs veh, HSP90B1 /// MIR3652 / RFU, ADSS / Fold change vs veh, ADSS / RFU, GK / Fold change vs veh, GK / RFU, ZNF148 / Fold change vs veh, ZNF148 / RFU, TAF9 / Fold change vs veh, TAF9 / RFU, SLC1A5 / Fold change vs veh, SLC1A5 / RFU, SLMO2 / Fold change vs veh, SLMO2 / RFU, ABCC4 / Fold change vs veh, ABCC4 / RFU, LOC101060439 /// RAP1B / Fold change vs veh, LOC101060439 /// RAP1B / RFU, RFX7 / Fold change vs veh, RFX7 / RFU, GTPBP10 / Fold change vs veh, GTPBP10 / RFU, CNEP1R1 / Fold change vs veh, CNEP1R1 / RFU, BIVM-ERCC5 /// ERCC5 / Fold change vs veh, BIVM-ERCC5 /// ERCC5 / RFU, ILF3 / Fold change vs veh, ILF3 / RFU 11762660_at / Fold change /veh 11762660_at / RFU VCAN (11757783_s_at) / Fold change /veh VCAN (11757783_s_at) / RFU DDX43 (11728927_at) / Fold change /veh DDX43 (11728927_at) / RFU KRT8 (11758188_x_at) / Fold change /veh KRT8 (11758188_x_at) / RFU NKD1 (11759106_at) / Fold change /veh NKD1 (11759106_at) / RFU SRD5A1 (11742802_a_at) / Fold change /veh SRD5A1 (11742802_a_at) / RFU TPSAB1 /// TPSB2 (11721975_s_at) / Fold change /veh TPSAB1 /// TPSB2 (11721975_s_at) / RFU GSTM3 (11746129_a_at) / Fold change /veh GSTM3 (11746129_a_at) / RFU IL23R (11737362_x_at) / Fold change /veh IL23R (11737362_x_at) / RFU TMEM51 (11727254_a_at) / Fold change /veh TMEM51 (11727254_a_at) / RFU PIWIL2 (11732686_x_at) / Fold change /veh PIWIL2 (11732686_x_at) / RFU ORM1 (11744905_x_at) / Fold change /veh ORM1 (11744905_x_at) / RFU CCDC152 (11743942_at) / Fold change /veh CCDC152 (11743942_at) / RFU ECM1 (11717891_a_at) / Fold change /veh ECM1 (11717891_a_at) / RFU IL23R (11748794_a_at) / Fold change /veh IL23R (11748794_a_at) / RFU TNFAIP8L3 (11732012_x_at) / Fold change /veh TNFAIP8L3 (11732012_x_at) / RFU MBOAT4 (11741988_at) / Fold change /veh MBOAT4 (11741988_at) / RFU 11764193_at / Fold change /veh 11764193_at / RFU TMEM53 (11763286_at) / Fold change /veh TMEM53 (11763286_at) / RFU MAGEB2 (11727129_at) / Fold change /veh MAGEB2 (11727129_at) / RFU TMEM200A (11744735_a_at) / Fold change /veh TMEM200A (11744735_a_at) / RFU CCDC152 (11751479_a_at) / Fold change /veh CCDC152 (11751479_a_at) / RFU FAM211A (11726209_a_at) / Fold change /veh FAM211A (11726209_a_at) / RFU RGS16 (11746705_a_at) / Fold change /veh RGS16 (11746705_a_at) / RFU VCAN (11755009_s_at) / Fold change /veh VCAN (11755009_s_at) / RFU RHOB (11743442_s_at) / Fold change /veh RHOB (11743442_s_at) / RFU RGS16 (11720943_a_at) / Fold change /veh RGS16 (11720943_a_at) / RFU RGS16 (11720944_at) / Fold change /veh RGS16 (11720944_at) / RFU, VPS4B / Fold change vs veh, VPS4B / RFU, CREB1 / Fold change vs veh, CREB1 / RFU, DNAJC13 / Fold change vs veh, DNAJC13 / RFU, GNAQ / Fold change vs veh, GNAQ / RFU, CDK5R1 / Fold change vs veh, CDK5R1 / RFU, ZRANB3 / Fold change vs veh, ZRANB3 / RFU, CUL4A / Fold change vs veh, CUL4A / RFU, CCNY / Fold change vs veh, CCNY / RFU, UFL1 / Fold change vs veh, UFL1 / RFU, COG3 / Fold change vs veh, COG3 / RFU, DIAPH2 / Fold change vs veh, DIAPH2 / RFU, SKA2 / Fold change vs veh, SKA2 / RFU, AFF3 / Fold change vs veh, AFF3 / RFU, LMF1 / Fold change vs veh, LMF1 / RFU, IPO11 / Fold change vs veh, IPO11 / RFU, DFFB / Fold change vs veh, DFFB / RFU, FOXP1 / Fold change vs veh, FOXP1 / RFU, CARD8 / Fold change vs veh, CARD8 / RFU, STRN3 / Fold change vs veh, STRN3 / RFU, ADK / Fold change vs veh, ADK / RFU, RASSF2 / Fold change vs veh, RASSF2 / RFU, WIPF1 / Fold change vs veh, WIPF1 / RFU, LARP1B / Fold change vs veh, LARP1B / RFU, RASA1 / Fold change vs veh, RASA1 / RFU, RB1 / Fold change vs veh, RB1 / RFU, PPFIA1 / Fold change vs veh, PPFIA1 / RFU, MAT2A / Fold change vs veh, MAT2A / RFU, CCT5 / Fold change vs veh, CCT5 / RFU, WDR92 / Fold change vs veh, WDR92 / RFU, CUX1 / Fold change vs veh, CUX1 / RFU, TTC7A / Fold change vs veh, TTC7A / RFU, TMEM135 / Fold change vs veh, TMEM135 / RFU, DEPTOR / Fold change vs veh, DEPTOR / RFU, CPM / Fold change vs veh, CPM / RFU, DNAJB6 / Fold change vs veh, DNAJB6 / RFU, CACNA2D3 / Fold change vs veh, CACNA2D3 / RFU, DTX4 / Fold change vs veh, DTX4 / RFU, TFCP2 / Fold change vs veh, TFCP2 / RFU, GMCL1 /// GMCL1P1 / Fold change vs veh, GMCL1 /// GMCL1P1 / RFU, AEBP2 / Fold change vs veh, AEBP2 / RFU, SNHG1 /// SNORD22 /// SNORD25 /// SNORD26 /// SNORD27 /// SNORD28 /// SNORD29 /// SNORD31 / Fold change vs veh, SNHG1 /// SNORD22 /// SNORD25 /// SNORD26 /// SNORD27 /// SNORD28 /// SNORD29 /// SNORD31 / Fold change (Aza/veh), C12orf56 (ProbeSet 11735607_a_at) / Fold change (ACY-1035/veh), C12orf56 (ProbeSet 11735607_a_at) / Fold change (Aza/veh), FGFR1OP (ProbeSet 11751329_s_at) / Fold change (ACY-1035/veh), FGFR1OP (ProbeSet 11751329_s_at) / Fold change (Aza/veh), VPS36 (ProbeSet 11739960_a_at) / Fold change (ACY-1035/veh), VPS36 (ProbeSet 11739960_a_at) / RFU SYPL1 (11715823_x_at) / Fold change /veh SYPL1 (11715823_x_at) / RFU IGFBP7 (11715501_s_at) / Fold change /veh IGFBP7 (11715501_s_at) / RFU REEP3 (11722064_at) / Fold change /veh REEP3 (11722064_at) / RFU IGLL1 (11728026_x_at) / Fold change /veh IGLL1 (11728026_x_at): dose or concentration left out as unconfirmed
Conditions: ProbeSet 11755436_x_at; LIST B

Nc1ncn([C@@H]2O[C@H](CO)[C@@H](O)[C@H]2O)c(=O)n1 [azacitidine]
Fold change vs veh, ARID1A: 1.10
